Measured values: patent EP0019764A1, “Trans-3-(4'-tert.-butyl-cyclohexyl-1')-2-methyl-1-(3'-methylpiperidino, 3',5'-dimethylpiperidino and 2', 6'-dimethylmorpholino) propane, process for their pure preparation, antimycotic agents containing them and their utilisation” (BASF Aktiengesellschaft, priority 1979, dated 1980)
Converted amounts (≈) assume the structure as drawn. Like-named read-outs stand apart in the source and are kept apart here.

Key:
Microsporum canis = assay: agar dilution test, minimal inhibitory concentration; type: cell-based; conditions: Agardilutionstest, read-out: MHK-Werte
Source text: (§1) Die Wirkung gegenüber Mikroorganismen kann nach Methoden, wie sie beispielsweise in P. Klein, Bakteriologische Grundlagen der chemotherapeutischen Laboratoriumspraxis, Springer-Verlag Berlin, 1957, beschrieben sind, aufgezeigt werden.
(§2) Beispielsweise wurde geprüft, welche minimalen Hemmkonzentrationen (MHK-Werte) im Agardilutionstest gegen pathogene Pilze erreicht werden können.
(§3) In der folgenden Tabelle 1 sind die Ergebnisse zusammengefaßt: […]

[1] = test system: Trichophyton schoenleinii; assay: as above; type: cell-based; conditions: Stamm No 9/M, Agardilutionstest, read-out: MHK-Werte
Source text: as §1, §2, §3

Microsporum ferrugineum = assay: as above; type: cell-based; conditions: Stamm No 5/M, Agardilutionstest, read-out: MHK-Werte
Source text: as §1, §2, §3

[2] = test system: Trichophyton mentagrophytes; assay: as above; type: cell-based; conditions: Agardilutionstest, read-out: MHK-Werte
Source text: as §1, §2, §3

Trichophyton violaceum = assay: as above; type: cell-based; conditions: Stamm No 10/M, Agardilutionstest, read-out: MHK-Werte
Source text: as §1, §2, §3

Microsporum gypseum = assay: as above; type: cell-based; conditions: Nannizzia gypsea; Stamm No 156/M; Agardilutionstest; read-out: MHK-Werte
Source text: as §1, §2, §3

Epidermophyton floccosum = assay: as above; type: cell-based; conditions: Stamm No 157/M, Agardilutionstest, read-out: MHK-Werte
Source text: as §1, §2, §3

Trichophyton rubrum = assay: as above; type: cell-based; conditions: Stamm No 158/M, Agardilutionstest, read-out: MHK-Werte
Source text: as §1, §2, §3

[3] = test system: humanpathogenen Pilzen und Hefen aus dem Verwandtschaftskreis der Dermatophyten; assay: inhibitory effect on microorganisms, trans compound compared with cis compound; type: cell-based; conditions: compared with the respective cis compound; Hemmeffekte gegenüber Mikroorganismen
Source text: Aufgrund der überraschenden Feststellung, daß die reinen trans-Verbindungen gegenüber humanpathogenen Pilzen und Hefen aus dem Verwandtschaftskreis der Dermatophyten um das 10-fache und noch darüber hinaus stärker wirksam sind als die cis-Verbindungen, ist es eine Aufgabe der Erfindung, Verfahren zur Herstellung der reinen trans-Verbindungen (1) bis (3) zu entwickeln.
überraschenderweise sind die reinen trans-Verbindungen fast ausschließlich Träger der guten antimykotischen Wirkung. Verglichen mit der jeweiligen cis-Verbindung und bezogen auf die Hemmeffekte gegenüber Mikroorganismen, sind die trans-Verbindungen (1), (2) und (3) 10-fach und noch darüber hinaus stärker wirksam. Das bedeutet beispielsweise bei etwa gleichen Toxizitätswerten eine wesentliche Verbesserung der therapeutischen Breite.

[4] = acute oral toxicity (LD50) in the mouse; conditions: in vivo, Maus per os
Source text: Aus diesen LD50-Werten ergibt sich für die topische und systemische Anwendung nach oraler Gabe eine genügend therapeutische Breite.

Compound	MIC (Microsporum canis; Stamm No 168/M) [µg/mL]	MIC [1] [µg/mL]	MIC (Microsporum ferrugineum) [µg/mL]	MIC ([2]; Stamm No 19/M) [µg/mL]	MIC ([2]; Stamm No 159/M) [µg/mL]	MIC ([2]; Stamm No 170/M) [µg/mL]	MIC ([2]; Stamm No 171/M) [µg/mL]	MIC ([2]; Stamm No 173/M) [µg/mL]	MIC (Trichophyton violaceum) [µg/mL]	MIC (Microsporum gypseum) [µg/mL]	MIC (Microsporum canis; Stamm No 155/M) [µg/mL]	MIC (Microsporum canis; Stamm No 167/M) [µg/mL]	MIC (Microsporum canis; Stamm No 169/M) [µg/mL]	MIC (Epidermophyton floccosum) [µg/mL]	MIC ([2]; Stamm No 21/M) [µg/mL]	MIC ([2]; Stamm No 160/M) [µg/mL]	MIC ([2]; Stamm No 172/M) [µg/mL]	MIC ([2]; Stamm No 174/M) [µg/mL]	MIC (Trichophyton rubrum) [µg/mL]	stärker wirksam als die cis-Verbindung [3] [fach]	further results
CC1CC(C)CN(CC(C)C[C@H]2CC[C@@H](C(C)(C)C)CC2)C1 (relative stereo) [(2) cis, cis- und trans-3-(4'-tert.-Butyl-cyclohexyl-1')-2--methyl-1-(3',5'-dimethyl-1'-piperidino)-propan]	0.0312 (≈ 0.101 µM)	0.0625 (≈ 0.203 µM)	0.0625 (≈ 0.203 µM)	0.25 (≈ 0.813 µM)	0.0156 (≈ 0.0507 µM)	0.0625 (≈ 0.203 µM)	0.0625 (≈ 0.203 µM)	0.25 (≈ 0.813 µM)	0.0625 (≈ 0.203 µM)												
Clc1ccc(COC(Cn2ccnc2)c2ccc(Cl)cc2Cl)c(Cl)c1 (stereo not drawn) [Miconazol, reference compound]	> 1.28	> 1.28	> 1.28	> 1.28	0.32 (≈ 0.769 µM)	1.28 (≈ 3.08 µM)	0.64 (≈ 1.54 µM)	0.32 (≈ 0.769 µM)	0.64 (≈ 1.54 µM)	> 1.28	> 1.28	> 1.28	> 1.28	> 1.28	> 1.28	> 1.28	0.32 (≈ 0.769 µM)	> 1.28	> 1.28		
CC1CCCN(CC(C)C[C@H]2CC[C@H](C(C)(C)C)CC2)C1 (relative stereo) [(1) trans, trans-3-(4'-tert.-Butyl-cyclohexyl-1')-2-methyl-1-(3'--methyl-1'-piperidino)-propan]	0.0156 (≈ 0.0531 µM)	0.0625 (≈ 0.213 µM)	0.0078 (≈ 0.0266 µM)	0.0312 (≈ 0.106 µM)	0.0078 (≈ 0.0266 µM)	0.0156 (≈ 0.0531 µM)	0.0156 (≈ 0.0531 µM)	0.0312 (≈ 0.106 µM)	0.0156 (≈ 0.0531 µM)	0.0156 (≈ 0.0531 µM)	0.0156 (≈ 0.0531 µM)	0.0312 (≈ 0.106 µM)	0.0625 (≈ 0.213 µM)	0.0312 (≈ 0.106 µM)	0.0312 (≈ 0.106 µM)	0.0312 (≈ 0.106 µM)	0.0625 (≈ 0.213 µM)	0.0312 (≈ 0.106 µM)	0.0312 (≈ 0.106 µM)	≥ 10	LD50 [4]: 305 mg/kg
Clc1ccccc1C(c1ccccc1)(c1ccccc1)n1ccnc1 [Clotrimazol, reference compound]	0.16 (≈ 0.464 µM)	0.64 (≈ 1.86 µM)	0.16 (≈ 0.464 µM)	1.28 (≈ 3.71 µM)	0.32 (≈ 0.928 µM)	0.32 (≈ 0.928 µM)	0.32 (≈ 0.928 µM)	0.64 (≈ 1.86 µM)	0.16 (≈ 0.464 µM)	0.64 (≈ 1.86 µM)	0.32 (≈ 0.928 µM)	0.64 (≈ 1.86 µM)	0.64 (≈ 1.86 µM)	0.32 (≈ 0.928 µM)	1.28 (≈ 3.71 µM)	0.64 (≈ 1.86 µM)	0.64 (≈ 1.86 µM)	1.28 (≈ 3.71 µM)	1.28 (≈ 3.71 µM)		
CC1CCCN(CC(C)C[C@H]2CC[C@@H](C(C)(C)C)CC2)C1 (relative stereo) [(1) cis, cis- und trans-3-(4-tert.-Butyl-cyclohexyl-1)-2-methyl-1-(3'-methyl-1-piperidino)-propan]	0.0625 (≈ 0.213 µM)		0.0312 (≈ 0.106 µM)	0.5 (≈ 1.7 µM)	0.0312 (≈ 0.106 µM)			0.25 (≈ 0.852 µM)	0.0625 (≈ 0.213 µM)	0.25 (≈ 0.852 µM)		0.25 (≈ 0.852 µM)	0.5 (≈ 1.7 µM)	0.25 (≈ 0.852 µM)	0.25 (≈ 0.852 µM)	0.25 (≈ 0.852 µM)	0.5 (≈ 1.7 µM)		0.25 (≈ 0.852 µM)		
CC1CC(C)CN(CC(C)C[C@H]2CC[C@H](C(C)(C)C)CC2)C1 (relative stereo) [(2) trans, trans-3-(4'-tert.-Butyl-cyclohexyl-1')-2-methyl-1-(3',5'--dimethyl-l'-piperidino)-propan]	< 0.0078	0.0156 (≈ 0.0507 µM)	< 0.0078	0.0625 (≈ 0.203 µM)	< 0.0078	< 0.0078	< 0.0078	0.0312 (≈ 0.101 µM)	< 0.0078	0.0312 (≈ 0.101 µM)	0.0312 (≈ 0.101 µM)	0.0156 (≈ 0.0507 µM)	0.0312 (≈ 0.101 µM)	0.0156 (≈ 0.0507 µM)	0.0312 (≈ 0.101 µM)	0.0312 (≈ 0.101 µM)	0.0312 (≈ 0.101 µM)	0.0156 (≈ 0.0507 µM)	0.0312 (≈ 0.101 µM)	≥ 10	LD50 [4]: 335 mg/kg
Cc1cccc(N(C)C(=S)Oc2ccc3ccccc3c2)c1 [Tolnaftat, reference compound]	0.04 (≈ 0.13 µM)	0.04 (≈ 0.13 µM)	0.16 (≈ 0.52 µM)	0.04 (≈ 0.13 µM)	0.08 (≈ 0.26 µM)	0.08 (≈ 0.26 µM)	0.16 (≈ 0.52 µM)	0.32 (≈ 1.04 µM)	< 0.01	0.16 (≈ 0.52 µM)	0.32 (≈ 1.04 µM)	0.16 (≈ 0.52 µM)	0.32 (≈ 1.04 µM)	0.32 (≈ 1.04 µM)	0.32 (≈ 1.04 µM)	0.32 (≈ 1.04 µM)	0.64 (≈ 2.08 µM)	0.08 (≈ 0.26 µM)	0.08 (≈ 0.26 µM)		
CC(CN1C[C@@H](C)O[C@@H](C)C1)C[C@H]1CC[C@@H](C(C)(C)C)CC1 (relative stereo) [(3) cis, cis- und trans-3-(4'-tert.-Butyl-cyclohexyl-l')-2--methyl-l-(2',6'-cis-dimethyl-morpholyl)-propan]	0.0625 (≈ 0.202 µM)		0.0312 (≈ 0.101 µM)	1 (≈ 3.23 µM)	0.0625 (≈ 0.202 µM)	0.0625 (≈ 0.202 µM)	0.0625 (≈ 0.202 µM)	0.25 (≈ 0.808 µM)			0.5 (≈ 1.62 µM)	0.0625 (≈ 0.202 µM)		0.25 (≈ 0.808 µM)	1 (≈ 3.23 µM)		0.25 (≈ 0.808 µM)		> 1		
CC(CN1C[C@@H](C)O[C@@H](C)C1)C[C@H]1CC[C@H](C(C)(C)C)CC1 (relative stereo) [(3) trans, trans-3-(4'-tert.-Butyl-cyclohexyl-1')-2-methyl-1--(2',6'-cis-dimethylmorpholino)-propan]	0.0156 (≈ 0.0504 µM)	0.0156 (≈ 0.0504 µM)	< 0.0078	0.0312 (≈ 0.101 µM)	< 0.0078	0.0156 (≈ 0.0504 µM)	0.0156 (≈ 0.0504 µM)	0.0625 (≈ 0.202 µM)	0.0156 (≈ 0.0504 µM)	0.0156 (≈ 0.0504 µM)	0.0312 (≈ 0.101 µM)	0.0312 (≈ 0.101 µM)	0.0312 (≈ 0.101 µM)	0.0312 (≈ 0.101 µM)	0.0625 (≈ 0.202 µM)	0.0625 (≈ 0.202 µM)	0.0625 (≈ 0.202 µM)	0.0156 (≈ 0.0504 µM)	0.0625 (≈ 0.202 µM)	≥ 10	LD50 [4]: 2250 mg/kg
